Test results taken from ChEMBL document CHEMBL1201862, “PubChem BioAssay data set” (2004).
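1) Cells in 96-well plates. 2) Compound, 48 h, 5 concentrations. 3) Linear interpolation between surrounding doses. 4) Unreached endpoint = highest concentration. The concentration for 50% growth inhibition is given as GI50.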 The source made the active and inactive calls. No stated cut-off is given here; in the data, active = GI50 up to about 1.1 µM and inactive = higher.

Tests used:
Assay in all cases: NCI tumour cell line growth inhibition, 48 h
[1] = test system: XF498
[2] = test system: SNB-78
[3] = test system: DMS-114
[4] = test system: HOP-18
[5] = test system: KM-20L2
[6] = test system: RXF 631
[7] = test system: M19-MEL
[8] = test system: LXFL 529
[9] = test system: Hs-578T

Measured: GI50

COC(=O)C1CCC2(CC1)NC(=O)NC2=O (stereo not drawn)
inactive: [1] > 100 µM | [2] > 100 µM | [3] > 100 µM | [4] > 100 µM | [5] > 100 µM | [6] > 100 µM | [7] > 100 µM | [8] > 100 µM

CCCCCCCCCCNC1CC(OC2CC(O)(C(O)CO)Cc3c(O)c4c(c(O)c32)C(=O)c2c(OC)cccc2C4=O)OC(C)C1O (stereo not drawn)
inactive: [1] 1.91 µM | [2] 1.84 µM | [3] 1.46 µM | [4] 1.87 µM | [5] 1.69 µM | [9] 1.67 µM | [6] 1.53 µM | [7] 1.65 µM
active: [8] 0.731 µM

CC1(C)C2C=CC1C(=O)CC2 (stereo not drawn)
inactive: [1] > 100 µM | [2] > 100 µM | [4] > 100 µM | [5] > 100 µM | [6] > 100 µM | [8] > 100 µM

CCOC(=O)CCn1[nH]c(=O)c(Cl)c(Cl)c1=O
inactive: [1] > 100 µM | [2] > 100 µM | [3] > 100 µM | [4] > 100 µM | [5] > 100 µM | [6] > 100 µM | [7] > 100 µM | [8] > 100 µM

COC(=O)/C=C\C1C(C(=O)OC)C2(C(=O)OC)CCC1(C(=O)OC)N2 (stereo not drawn)
inactive: [1] 19.1 µM | [2] 10.2 µM | [4] 15.1 µM | [5] 31.9 µM | [6] 20.8 µM | [7] 14.7 µM | [8] 6.75 µM

CN(C)CCN(C)C(=O)c1cccc2cccc(C(=O)O)c12
inactive: [1] > 100 µM | [2] > 100 µM | [3] > 100 µM | [4] > 100 µM | [5] > 100 µM | [6] > 100 µM | [7] > 100 µM | [8] > 100 µM

CCCCCCCCCCCCCCC(O)C1CCC(C(O)CCC(O)CCCCCC(O)CC2=CC(C)OC2=O)O1 (stereo not drawn)
active: [1] 1.12 µM | [3] < 0.01 µM
inactive: [2] 1.49 µM | [5] 3.4 µM | [6] 2.94 µM | [7] 2 µM | [8] 2.11 µM
